Results taken from patent publication US8354403B2, “Pyrrolidine derived beta 3 adrenergic receptor agonists” (Merck Sharp & Dohme Corp., priority 2009, dated 2013).

These molecules were tested against T1, human β3 adrenergic receptor (Homo sapiens, UniProt P13945) (assay: Beta-3 agonist in vitro functional assay: cAMP production (LANCE TR-FRET) in CHO cells stably transfected with the cloned β3 receptor). Conditions: Table 4; cAMP, CHO cells; read-out: Human β3 agonist functional activity.
T1 construct: expressed in transfected cells; host or cells: Chinese hamster ovary (CHO) cells, stably transfected
T1 sequence (P13945 whole entry): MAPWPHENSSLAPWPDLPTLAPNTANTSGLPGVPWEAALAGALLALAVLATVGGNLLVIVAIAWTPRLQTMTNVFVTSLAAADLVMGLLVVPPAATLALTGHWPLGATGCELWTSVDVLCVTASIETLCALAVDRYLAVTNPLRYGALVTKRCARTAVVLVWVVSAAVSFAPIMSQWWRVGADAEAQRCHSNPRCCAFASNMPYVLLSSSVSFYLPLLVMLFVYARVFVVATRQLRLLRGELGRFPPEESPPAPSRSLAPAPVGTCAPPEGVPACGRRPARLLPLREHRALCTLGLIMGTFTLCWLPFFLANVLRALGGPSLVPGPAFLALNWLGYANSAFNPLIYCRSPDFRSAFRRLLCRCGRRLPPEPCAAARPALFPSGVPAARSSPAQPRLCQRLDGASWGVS
Assay type: cell-based
Procedure, shortened: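 CHO cells stably expressing the cloned receptor, in HEPES-buffered HBSS with BSA and 0.6 mM IBMX, 6,000 cells/well, exposed to compound for 30 min at RT. cAMP read by LANCE TR-FRET against a cAMP standard curve. Isoproterenol defines maximal stimulation.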
In the case of `O=C(c1ccc(C[C@@H]2CC[C@H]([C@H](O)c3cccnc3)N2)cc1)N1CCC2c3ccccc3OC2C1` (some centres unmarked) [Example 57], the EC50 is reported as 1 to 9.9 nM.
`COc1ccc2c(c1)C(=O)CC1(CCCN(C(=O)c3ccc(C[C@@H]4CC[C@H]([C@H](O)c5ccccc5)N4)cc3)C1)O2` (some centres unmarked) [Example 43] gave an EC50 of 10 to 99.9 nM.

Same assay, conditions: Table 5; cAMP, CHO cells; read-out: Human β3 agonist functional activity
`CS(=O)(=O)C1CCN(C(=O)c2ccc(C[C@@H]3CC[C@H]([C@H](O)c4cccnc4)N3)cc2)CC1` [Example 123] was tested, and the EC50 was 100 to 999 nM.
Molecule `O=C(c1ccc(C[C@@H]2CC[C@H]([C@H](O)c3ccccc3)N2)cc1)N1CCC(N2C(=O)NC3CCCCC32)CC1` (some centres unmarked) [Example 76] has an EC50 of 10 to 99.9 nM.
With `CCOC(=O)C1CCN(C(=O)c2ccc(C[C@@H]3CC[C@H]([C@H](O)c4ccccc4)N3)cc2)CC1` [Example 118] the EC50 was 10 to 99.9 nM.
For `O=C(O)C1CCN(C(=O)c2ccc(C[C@@H]3CC[C@H]([C@H](O)c4ccccc4)N3)cc2)CC1` [Example 117], the EC50 was 100 to 999 nM.
`O=C(c1ccc(C[C@@H]2CC[C@H]([C@H](O)c3ccccc3)N2)cc1)N1CCC(OCc2ccccn2)CC1` [Example 163] gave an EC50 of 100 to 999 nM.
`O=C(c1ccc(C[C@@H]2CC[C@H]([C@H](O)c3ccccc3)N2)cc1)N1CCC(n2c(=O)[nH]c3ccccc32)CC1` [Example 74] was tested, and the EC50 was 100 to 999 nM.
`O=C(c1ccc(C[C@@H]2CC[C@H]([C@H](O)c3cccnc3)N2)cc1)N1CCC(S(=O)(=O)c2ccc(F)cc2)CC1` [Example 129] gave an EC50 of 100 to 999 nM.
For `Cn1nnc(C2CCN(C(=O)c3ccc(C[C@@H]4CC[C@H]([C@H](O)c5ccccc5)N4)cc3)CC2)n1` [Example 106], the EC50 was 10 to 99.9 nM.
Molecule `Cc1cncn1C1CCN(C(=O)c2ccc(C[C@@H]3CC[C@H]([C@H](O)c4cccnc4)N3)cc2)CC1` [Example 87] has an EC50 of 100 to 999 nM.
`O=C(c1ccc(C[C@@H]2CC[C@H]([C@H](O)c3cccnc3)N2)cc1)N1CCC(N2C(=O)OCc3ccccc32)CC1` [Example 71] gave an EC50 of 1 to 9.9 nM.
`Cc1nccc(OC2CCN(C(=O)c3ccc(C[C@@H]4CC[C@H]([C@H](O)c5ccccc5)N4)cc3)CC2)n1` [Example 154] gave an EC50 of 100 to 999 nM.
Work on `O=C(c1ccc(C[C@@H]2CC[C@H]([C@H](O)c3ccccc3)N2)cc1)N1CCC(c2nc(-c3cccnc3)no2)CC1` [Example 82] yielded an EC50 of 100 to 999 nM.
`O=C(c1ccc(C[C@@H]2CC[C@H]([C@H](O)c3ccccc3)N2)cc1)N1CCC(c2nnc(-c3cnccn3)[nH]2)CC1` [Example 81] was tested, and the EC50 was 100 to 999 nM.
For `Cn1nnnc1C1CCN(C(=O)c2ccc(C[C@@H]3CC[C@H]([C@H](O)c4ccccc4)N3)cc2)CC1` [Example 108], the EC50 was 1 to 9.9 nM.
With `O=C(c1ccc(C[C@@H]2CC[C@H]([C@H](O)c3cccnc3)N2)cc1)N1CCC(c2cccc(F)n2)CC1` [Example 113] the EC50 was 10 to 99.9 nM.
`Cc1nnnn1C1CCN(C(=O)c2ccc(C[C@@H]3CC[C@H]([C@H](O)c4ccccc4)N3)cc2)CC1` [Example 101] was tested, and the EC50 was 1 to 9.9 nM.
In the case of `O=C(c1ccc(C[C@@H]2CC[C@H]([C@H](O)c3ccccc3)N2)cc1)N1CCCCC1` [Example 67], the EC50 is reported as 100 to 999 nM.

Same assay, conditions: Table 7; cAMP, CHO cells; ranges as given for Tables 6 and 7; read-out: Human β3 agonist functional activity
`O=C(c1ccc(CC2CCC(C(O)c3ccccc3)N2)cc1)N1CC2C(C1)C2Cn1ccnn1` (centres unmarked) [Example 233] showed an EC50 of 100 to 999 nM.

Same assay, conditions: Table 8; Beta-3 agonist in vitro functional assay; read-out: Human β3 agonist functional activity
`CC1(C)CC2(CCN(C(=O)c3ccc(C[C@@H]4CC[C@H]([C@H](O)c5ccccc5)N4)cc3)CC2)OC1=O` [Example 279] showed an EC50 of 10 to 99.9 nM.
Work on `O=C1CC2(CCN(C(=O)c3ccc(C[C@@H]4CC[C@H]([C@H](O)c5ccccc5)N4)cc3)CC2)Sc2ccccc21` [Example 326] yielded an EC50 of 1 to 9.9 nM.
`O=C1NC2(CCN(C(=O)c3ccc(C[C@@H]4CC[C@H]([C@H](O)c5ccccc5)N4)cc3)CC2)CO1` [Example 271] showed an EC50 of 100 to 999 nM.
Work on `O=C1OC2(CCN(C(=O)c3ccc(C[C@@H]4CC[C@H]([C@H](O)c5ccccc5)N4)cc3)CC2)c2ncccc21` [Example 287] yielded an EC50 of 10 to 99.9 nM.
Work on `O=C1OC2(CCN(C(=O)c3ccc(C[C@@H]4CC[C@H]([C@H](O)c5cccnc5)N4)cc3)CC2)c2ccccc21` [Example 284] yielded an EC50 of 1 to 9.9 nM.
In the case of `O=C1NCC2(CCN(C(=O)c3ccc(C[C@@H]4CC[C@H]([C@H](O)c5ccccc5)N4)cc3)CC2)O1` [Example 272], the EC50 is reported as 100 to 999 nM.
With `O=C(c1ccc(C[C@@H]2CC[C@H]([C@H](O)c3ccccc3)N2)cc1)N1CCC2(CC1)C(=O)NCN2c1ccccc1` [Example 260] the EC50 was less than 1 nM.
With `O=C(c1ccc(C[C@@H]2CC[C@H]([C@H](O)c3ccccc3)N2)cc1)N1CCC2(CCCN2)CC1` [Example 305] the EC50 was 100 to 999 nM.
Molecule `O=C1OC2(CCN(C(=O)c3ccc(C[C@@H]4CC[C@H]([C@H](O)c5ccccc5)N4)cc3)CC2)c2ccccc21` [Example 283] has an EC50 of 10 to 99.9 nM.
`CON=C1CCCC12CCN(C(=O)c1ccc(CC3CCC(C(O)c4ccccc4)N3)cc1)CC2` (centres unmarked) [Example 318] was tested, and the EC50 was 100 to 999 nM.

Same assay, conditions: Table 9; Beta-3 agonist in vitro functional assay; read-out: Human β3 agonist functional activity
Molecule `O=C(c1ccc(C[C@@H]2CC[C@H]([C@H](O)c3ccccc3)N2)cc1)N1CCN(Cc2n[nH]c3ccccc23)CC1` [Example 405] has an EC50 of 1 to 9.9 nM.
With `Cc1nnc(C(C)N2CCN(C(=O)c3ccc(C[C@@H]4CC[C@H]([C@H](O)c5ccccc5)N4)cc3)CC2)o1` (some centres unmarked) [Example 424] the EC50 was 100 to 999 nM.
`COC(=O)c1cccnc1N1CCN(C(=O)c2ccc(C[C@@H]3CC[C@H]([C@H](O)c4ccccc4)N3)cc2)CC1` [Example 366] showed an EC50 of 10 to 99.9 nM.
Molecule `O=C(c1ccc(C[C@@H]2CC[C@H]([C@H](O)c3ccccc3)N2)cc1)N1CCN(Cc2ncco2)CC1` [Example 392] has an EC50 of 10 to 99.9 nM.
With `O=C(c1ccc(C[C@@H]2CC[C@H]([C@H](O)c3ccccc3)N2)cc1)N1CCN(c2cc3ccccc3cn2)CC1` [Example 374] the EC50 was 100 to 999 nM.
With `O=C(O)c1csc(N2CCN(C(=O)c3ccc(C[C@@H]4CC[C@H]([C@H](O)c5ccccc5)N4)cc3)CC2)n1` [Example 382] the EC50 was 999 to 3000 nM.

Same assay, conditions: Table 10; Beta-3 agonist in vitro functional assay; read-out: Human β3 agonist functional activity
For `Cc1nonc1CN(C)C(=O)C(C)N1CCN(C(=O)c2ccc(C[C@@H]3CC[C@H]([C@H](O)c4ccccc4)N3)cc2)CC1` (some centres unmarked) [Example 512], the EC50 was 10 to 99.9 nM.
For `CC(C(=O)NCC(C)(C)O)N1CCN(C(=O)c2ccc(C[C@@H]3CC[C@H]([C@H](O)c4ccccc4)N3)cc2)CC1` (some centres unmarked) [Example 443], the EC50 was 10 to 99.9 nM.
Molecule `CC(C(=O)N1CCC(O)C1)N1CCN(C(=O)c2ccc(C[C@@H]3CC[C@H]([C@H](O)c4ccccc4)N3)cc2)CC1` (some centres unmarked) [Example 477] has an EC50 of 100 to 999 nM.
Work on `CC(C(=O)N1CCc2ccncc2C1)N1CCN(C(=O)c2ccc(C[C@@H]3CC[C@H]([C@H](O)c4ccccc4)N3)cc2)CC1` (some centres unmarked) [Example 506] yielded an EC50 of 10 to 99.9 nM.
Molecule `CC(C)C1CC(CNC(=O)C(C)N2CCN(C(=O)c3ccc(C[C@@H]4CC[C@H]([C@H](O)c5ccccc5)N4)cc3)CC2)C1` (some centres unmarked) [Example 454] has an EC50 of 10 to 99.9 nM.
With `CC(C(=O)N1CCC1)N1CCN(C(=O)c2ccc(C[C@@H]3CC[C@H]([C@H](O)c4ccccc4)N3)cc2)CC1` (some centres unmarked) [Example 471] the EC50 was 1 to 9.9 nM.
`CC(C(=O)NC1CCN(C)C1=O)N1CCN(C(=O)c2ccc(C[C@@H]3CC[C@H]([C@H](O)c4ccccc4)N3)cc2)CC1` (some centres unmarked) [Example 459] gave an EC50 of less than 1 nM.
For `COC(=O)C(C)N1CCN(C(=O)c2ccc(C[C@@H]3CC[C@H]([C@H](O)c4ccccc4)N3)cc2)CC1` (some centres unmarked) [Example 434], the EC50 was 1 to 9.9 nM.
Work on `CC(C(=O)NC(C1CC1)C1CC1)N1CCN(C(=O)c2ccc(C[C@@H]3CC[C@H]([C@H](O)c4ccccc4)N3)cc2)CC1` (some centres unmarked) [Example 451] yielded an EC50 of 10 to 99.9 nM.
`CC(C(=O)N1CC(F)C1)N1CCN(C(=O)c2ccc(C[C@@H]3CC[C@H]([C@H](O)c4ccccc4)N3)cc2)CC1` (some centres unmarked) [Example 472] was tested, and the EC50 was 1 to 9.9 nM.
Work on `CC(C)CCNC(=O)C(C)N1CCN(C(=O)c2ccc(C[C@@H]3CC[C@H]([C@H](O)c4ccccc4)N3)cc2)CC1` (some centres unmarked) [Example 438] yielded an EC50 of 100 to 999 nM.
`CC(C(=O)N1CCSC1)N1CCN(C(=O)c2ccc(C[C@@H]3CC[C@H]([C@H](O)c4ccccc4)N3)cc2)CC1` (some centres unmarked) [Example 481] showed an EC50 of 100 to 999 nM.
With `CC(C(=O)N1CCCC(C(F)(F)F)C1)N1CCN(C(=O)c2ccc(C[C@@H]3CC[C@H]([C@H](O)c4ccccc4)N3)cc2)CC1` (some centres unmarked) [Example 487] the EC50 was 1 to 9.9 nM.
`CC(C(=O)O)N1CCN(C(=O)c2ccc(C[C@@H]3CC[C@H]([C@H](O)c4ccccc4)N3)cc2)CC1` (some centres unmarked) [Example 433] was tested, and the EC50 was 1 to 9.9 nM.

Same assay, conditions: Table 11; cAMP, CHO cells; read-out: Human β3 agonist functional activity
In the case of `CC(c1ccccn1)N1CC2CCC1CN2C(=O)c1ccc(CC2CCC(C(O)c3ccccc3)N2)cc1` (centres unmarked) [Example 542], the EC50 is reported as 100 to 999 nM.
In the case of `O=C(c1ccc(C[C@@H]2CC[C@H]([C@H](O)c3ccccc3)N2)cc1)N1CC2CC1CN2c1nccs1` (some centres unmarked) [Example 544], the EC50 is reported as 999 to 3000 nM.
With `O=C(c1ccc(C[C@@H]2CC[C@H]([C@H](O)c3ccccc3)N2)cc1)N1CCCN(c2nccn3ccnc23)CC1` [Example 552] the EC50 was 1 to 9.9 nM.
`O=C(c1ccc(C[C@@H]2CC[C@H]([C@H](O)c3ccccc3)N2)cc1)N1CC2CCC1CN2Cc1ccccn1` (some centres unmarked) [Example 536] showed an EC50 of 100 to 999 nM.

Same assay, conditions: Table 12; human β3 functional activity given as ranges; read-out: Human β3 agonist functional activity
In the case of `CC(c1cccnn1)N1CCN(C(=O)c2ccc(CC3CCC(C(O)c4ccccc4)N3)cc2)CC1` (single isomer, unassigned) [Example 591], the EC50 is reported as 10 to 99.9 nM.
With `CC(c1ccccc1F)N1CCN(C(=O)c2ccc(CC3CCC(C(O)c4ccccc4)N3)cc2)CC1` (single isomer, unassigned) [Example 573] the EC50 was 1 to 9.9 nM.
Molecule `CC(c1ncco1)N1CCN(C(=O)c2ccc(CC3CCC(C(O)c4ccccc4)N3)cc2)CC1` (single isomer, unassigned) [Example 584] has an EC50 of 10 to 99.9 nM.
For `O=C(c1ccc(CC2CCC(C(O)c3cccnc3)N2)cc1)N1CCC2(CC1)C(=O)NCC2c1ccc(F)cc1` (single isomer, unassigned) [Example 555], the EC50 was 1 to 9.9 nM.

Same assay, conditions: given as a range; cAMP, CHO cells; read-out: human β3 functional activity
`O=C(c1ccc(C[C@@H]2CC[C@H]([C@H](O)c3ccccc3)N2)cc1)N1C2CCC1C1CCC2N1Cc1ccccn1` [Example 524, (R)-phenyl[(2R,5S)-5-(4-{[10-(pyridin-2-ylmethyl)-9,10-diazatricyclo[4.2.1.1^2,5]dec-9-yl]carbonyl}benzyl)pyrrolidin-2-yl]methanol] was tested, and the EC50 was 10 to 99.9 nM.
